{
  "source": "patent US20090155387A1",
  "about": "“STABLE PHARMACEUTICAL COMPOSITION COMPRISING BETA-LACTAM ANTIBIOTIC AND ION-CHELATING AGENT” (priority 2006, published 2009)",
  "key": {"[1]": {"experiment": "HIAC light obscuration test (USP 788), particle content of solution preparations", "format": "physicochemical", "details": "HIAC test results, composition in the form of a liquid solution", "protocol": "Light obscuration testing was performed for solution preparations prepared with some of the compositions described in the examples according to the method described in the United States Pharmacopeia (USP 788) using HIAC-3000 light obscuration detector. Particle content is denoted by the number of particles per milliliter of solution. The value is an average of two measurements. Samples were tested at 1 hour and at 20 hours."}, "[2]": {"experiment": "Amounts of β-lactam antibiotic, β-lactamase inhibitor and aminoglycoside antibiotic in solution over time (reverse-phase LC/HPLC)", "format": "physicochemical", "protocol": "The amounts of β-lactam antibiotics and β-lactamase inhibitor were determined using C18 reverse-phase LC and UV-VIS detector (Tianjin […] Co., Ltd., analysis method No. HM-K-03). The content of aminoglycoside antibiotics was measured using reverse-phase HPLC and evaporation-light-scattering detector (ELSD detector) (Tianjin […] Co., Ltd., analysis method No. HM-K-08). The amount of antibiotic component at each time point was expressed as a percentage with respect to the amount at the initial time. The relative amount of each antibiotic component in the composition at each time point was expressed as peak area ratio with respect to the corresponding peak area of an external standard."}},
  "note": "Entries after “also recorded” stand apart in the source; their conditions may differ.",
  "data": [
    {"smiles": "O=C(O)CN(CCN(CC(=O)O)CC(=O)O)CC(=O)O", "note": "[EDTA, ethylenediamine tetraacetic acid]", "values": [
      {"measurement": "effect on aggregate particle formation in solution preparations", "setting": "[1]", "value": "can significantly reduce aggregate particle formation; also recorded: effective in inhibiting formation of aggregate particles"}
    ]},
    {"smiles": "CCN1CCN(C(=O)N[C@@H](C(=O)N[C@@H]2C(=O)N3C(C(=O)O)=C(CSc4nnnn4C)CS[C@H]23)c2ccc(O)cc2)C(=O)C1=O", "note": "[Cefoperazone sodium]", "values": [
      {"measurement": "amount (percentage of initial amount)", "setting": "[2]; in Example 4 solution (no EDTA), pH 6.75, room temperature, 0 h", "value": 101.4, "unit": "%"},
      {"measurement": "amount (percentage of initial amount)", "setting": "[2]; in Example 4 solution (no EDTA), pH 6.75, room temperature, 1 h", "value": 98.66, "unit": "%"},
      {"measurement": "amount (percentage of initial amount)", "setting": "[2]; in Example 4 solution (no EDTA), pH 6.75, room temperature, 2 h", "value": 98.79, "unit": "%"},
      {"measurement": "amount (percentage of initial amount)", "setting": "[2]; in Example 4 solution (no EDTA), pH 6.75, room temperature, 4 h", "value": 101.5, "unit": "%"},
      {"measurement": "amount (percentage of initial amount)", "setting": "[2]; in Example 4 solution (no EDTA), pH 6.75, room temperature, 6 h", "value": 107.4, "unit": "%"},
      {"measurement": "amount (percentage of initial amount)", "setting": "[2]; in Example 5 solution, pH 6.75, room temperature, 0 h", "value": 101.4, "unit": "%"},
      {"measurement": "amount (percentage of initial amount)", "setting": "[2]; in Example 5 solution, pH 6.75, room temperature, 1 h", "value": 98.66, "unit": "%"},
      {"measurement": "amount (percentage of initial amount)", "setting": "[2]; in Example 5 solution, pH 6.75, room temperature, 2 h", "value": 98.79, "unit": "%"},
      {"measurement": "amount (percentage of initial amount)", "setting": "[2]; in Example 5 solution, pH 6.75, room temperature, 4 h", "value": 101.5, "unit": "%"},
      {"measurement": "amount (percentage of initial amount)", "setting": "[2]; in Example 5 solution, pH 6.75, room temperature, 6 h", "value": 107.4, "unit": "%"},
      {"measurement": "amount (percentage of initial amount)", "setting": "[2]; in Example 6 solution, pH 6.5, room temperature, 0 h", "value": 110.4, "unit": "%"},
      {"measurement": "amount (percentage of initial amount)", "setting": "[2]; in Example 6 solution, pH 6.5, room temperature, 1 h", "value": 99.48, "unit": "%"},
      {"measurement": "amount (percentage of initial amount)", "setting": "[2]; in Example 6 solution, pH 6.5, room temperature, 2 h", "value": 101.3, "unit": "%"},
      {"measurement": "amount (percentage of initial amount)", "setting": "[2]; in Example 6 solution, pH 6.5, room temperature, 4 h", "value": 98.66, "unit": "%"},
      {"measurement": "amount (percentage of initial amount)", "setting": "[2]; in Example 6 solution, pH 6.5, room temperature, 6 h", "value": 98.02, "unit": "%"},
      {"measurement": "amount (percentage of initial amount)", "setting": "[2]; in Example 6 solution, pH 6.5, room temperature, 8 h", "value": 99.30, "unit": "%"},
      {"measurement": "amount (percentage of initial amount)", "setting": "[2]; in Example 12 solution (no aminoglycoside) from freeze-dried powder stored 7 days at 0° C., redissolved, 0 h", "value": 100.2, "unit": "%"},
      {"measurement": "amount (percentage of initial amount)", "setting": "[2]; in Example 12 solution (no aminoglycoside) from freeze-dried powder stored 7 days at 0° C., redissolved, 1 h", "value": 99.0, "unit": "%"},
      {"measurement": "amount (percentage of initial amount)", "setting": "[2]; in Example 12 solution (no aminoglycoside) from freeze-dried powder stored 7 days at 0° C., redissolved, 2 h", "value": 99.0, "unit": "%"},
      {"measurement": "amount (percentage of initial amount)", "setting": "[2]; in Example 12 solution (no aminoglycoside) from freeze-dried powder stored 7 days at 0° C., redissolved, 4 h", "value": 96.2, "unit": "%"},
      {"measurement": "amount (percentage of initial amount)", "setting": "[2]; in Example 12 solution (no aminoglycoside) from freeze-dried powder stored 7 days at 0° C., redissolved, 6 h", "value": 94.5, "unit": "%"},
      {"measurement": "amount (percentage of initial amount)", "setting": "[2]; in Example 12 solution (no aminoglycoside) from freeze-dried powder stored 7 days at 0° C., redissolved, 8 h", "value": 95.3, "unit": "%"},
      {"measurement": "amount (percentage of initial amount)", "setting": "[2]; in Example 13 solution (Example 12 solution + etimicin sulfate), 0 h", "value": 100.2, "unit": "%"},
      {"measurement": "amount (percentage of initial amount)", "setting": "[2]; in Example 13 solution (Example 12 solution + etimicin sulfate), 1 h", "value": 99.0, "unit": "%"},
      {"measurement": "amount (percentage of initial amount)", "setting": "[2]; in Example 13 solution (Example 12 solution + etimicin sulfate), 2 h", "value": 99.0, "unit": "%"},
      {"measurement": "amount (percentage of initial amount)", "setting": "[2]; in Example 13 solution (Example 12 solution + etimicin sulfate), 4 h", "value": 96.2, "unit": "%"},
      {"measurement": "amount (percentage of initial amount)", "setting": "[2]; in Example 13 solution (Example 12 solution + etimicin sulfate), 6 h", "value": 94.5, "unit": "%"},
      {"measurement": "amount (percentage of initial amount)", "setting": "[2]; in Example 13 solution (Example 12 solution + etimicin sulfate), 8 h", "value": 95.3, "unit": "%"},
      {"measurement": "amount (percentage of initial amount)", "setting": "[2]; in Example 14 solution, pH 6.5, room temperature, 0 h", "value": 98.42, "unit": "%"},
      {"measurement": "amount (percentage of initial amount)", "setting": "[2]; in Example 14 solution, pH 6.5, room temperature, 1 h", "value": 97.39, "unit": "%"},
      {"measurement": "amount (percentage of initial amount)", "setting": "[2]; in Example 14 solution, pH 6.5, room temperature, 2 h", "value": 97.46, "unit": "%"},
      {"measurement": "amount (percentage of initial amount)", "setting": "[2]; in Example 14 solution, pH 6.5, room temperature, 4 h", "value": 94.70, "unit": "%"},
      {"measurement": "amount (percentage of initial amount)", "setting": "[2]; in Example 14 solution, pH 6.5, room temperature, 6 h", "value": 93.02, "unit": "%"},
      {"measurement": "amount (percentage of initial amount)", "setting": "[2]; in Example 15 solution, pH 6.5, room temperature, 0 h", "value": 101.7, "unit": "%"},
      {"measurement": "amount (percentage of initial amount)", "setting": "[2]; in Example 15 solution, pH 6.5, room temperature, 1 h", "value": 96.06, "unit": "%"},
      {"measurement": "amount (percentage of initial amount)", "setting": "[2]; in Example 15 solution, pH 6.5, room temperature, 2 h", "value": 95.72, "unit": "%"},
      {"measurement": "amount (percentage of initial amount)", "setting": "[2]; in Example 15 solution, pH 6.5, room temperature, 4 h", "value": 97.32, "unit": "%"},
      {"measurement": "amount (percentage of initial amount)", "setting": "[2]; in Example 15 solution, pH 6.5, room temperature, 6 h", "value": 69.95, "unit": "%"},
      {"measurement": "amount (percentage of initial amount)", "setting": "[2]; in Example 16 solution, pH 6.5, room temperature, 0 h", "value": 102.9, "unit": "%"},
      {"measurement": "amount (percentage of initial amount)", "setting": "[2]; in Example 16 solution, pH 6.5, room temperature, 1 h", "value": 108.6, "unit": "%"},
      {"measurement": "amount (percentage of initial amount)", "setting": "[2]; in Example 16 solution, pH 6.5, room temperature, 2 h", "value": 104.6, "unit": "%"},
      {"measurement": "amount (percentage of initial amount)", "setting": "[2]; in Example 16 solution, pH 6.5, room temperature, 4 h", "value": 99.50, "unit": "%"},
      {"measurement": "amount (percentage of initial amount)", "setting": "[2]; in Example 16 solution, pH 6.5, room temperature, 6 h", "value": 98.91, "unit": "%"},
      {"measurement": "amount (percentage of initial amount)", "setting": "[2]; in Example 16 solution, pH 6.5, room temperature, 8 h", "value": 103.4, "unit": "%"},
      {"measurement": "amount (percentage of initial amount)", "setting": "[2]; in Example 19 solution, pH 6.75, room temperature, 0 h", "value": 95.91, "unit": "%"},
      {"measurement": "amount (percentage of initial amount)", "setting": "[2]; in Example 19 solution, pH 6.75, room temperature, 1 h", "value": 97.01, "unit": "%"},
      {"measurement": "amount (percentage of initial amount)", "setting": "[2]; in Example 19 solution, pH 6.75, room temperature, 2 h", "value": 95.94, "unit": "%"},
      {"measurement": "amount (percentage of initial amount)", "setting": "[2]; in Example 19 solution, pH 6.75, room temperature, 4 h", "value": 95.86, "unit": "%"},
      {"measurement": "amount (percentage of initial amount)", "setting": "[2]; in Example 19 solution, pH 6.75, room temperature, 6 h", "value": 95.41, "unit": "%"},
      {"measurement": "amount (percentage of initial amount)", "setting": "[2]; in Example 19 solution, pH 6.75, room temperature, 8 h", "value": 95.22, "unit": "%"},
      {"measurement": "amount (percentage of initial amount)", "setting": "[2]; in Example 20 solution (no EDTA), pH 6.75, room temperature, 0 h", "value": 92.30, "unit": "%"},
      {"measurement": "amount (percentage of initial amount)", "setting": "[2]; in Example 20 solution (no EDTA), pH 6.75, room temperature, 1 h", "value": 94.80, "unit": "%"},
      {"measurement": "amount (percentage of initial amount)", "setting": "[2]; in Example 20 solution (no EDTA), pH 6.75, room temperature, 2 h", "value": 94.06, "unit": "%"},
      {"measurement": "amount (percentage of initial amount)", "setting": "[2]; in Example 20 solution (no EDTA), pH 6.75, room temperature, 4 h", "value": 94.12, "unit": "%"},
      {"measurement": "amount (percentage of initial amount)", "setting": "[2]; in Example 20 solution (no EDTA), pH 6.75, room temperature, 6 h", "value": 93.15, "unit": "%"},
      {"measurement": "amount (percentage of initial amount)", "setting": "[2]; in Example 20 solution (no EDTA), pH 6.75, room temperature, 8 h", "value": 94.50, "unit": "%"},
      {"measurement": "amount (percentage of initial amount)", "setting": "[2]; in Example 21 solution, pH 6.75, room temperature (22° C.), 0 h", "value": 92.44, "unit": "%"},
      {"measurement": "amount (percentage of initial amount)", "setting": "[2]; in Example 21 solution, pH 6.75, room temperature (22° C.), 1 h", "value": 104.6, "unit": "%"},
      {"measurement": "amount (percentage of initial amount)", "setting": "[2]; in Example 21 solution, pH 6.75, room temperature (22° C.), 2 h", "value": 102.4, "unit": "%"},
      {"measurement": "amount (percentage of initial amount)", "setting": "[2]; in Example 21 solution, pH 6.75, room temperature (22° C.), 4 h", "value": 97.95, "unit": "%"},
      {"measurement": "amount (percentage of initial amount)", "setting": "[2]; in Example 21 solution, pH 6.75, room temperature (22° C.), 6 h", "value": 98.90, "unit": "%"},
      {"measurement": "amount (percentage of initial amount)", "setting": "[2]; in Example 21 solution, pH 6.75, room temperature (22° C.), 8 h", "value": 102.9, "unit": "%"}
    ]}
  ]
}
